# Results from the kinase profiling compilation of Christmann-Franck et al. (2016).
# What was measured:
# Test in all cases: radiometric filter-binding kinase assay, Kinase HotSpot
# Details in all cases: compound 0.5 µM; ATP 10 µM
# JAK2 JH1 JH2 (human) = JAK2 JH1 JH2 (human) (UniProt O60674)
# STK17A (human) = STK17A (human) (UniProt Q9UEE5)
# CSNK1G1 (human) = CSNK1G1 (human) (UniProt Q9HCP0)
# NEK4 (human) = NEK4 (human) (UniProt P51957)
# MAP4K2 (human) = MAP4K2 (human) (UniProt Q12851)
# NUAK1 (human) = NUAK1 (human) (UniProt O60285)
# NTRK2 (human) = NTRK2 (human) (UniProt Q16620)
# MAP3K3 (human) = MAP3K3 (human) (UniProt Q99759)
# PIM3 (human) = PIM3 (human) (UniProt Q86V86)
# CSNK1G3 (human) = CSNK1G3 (human) (UniProt Q9Y6M4)
# PHKG1 (human) = PHKG1 (human) (UniProt Q16816)
# TSSK2 (human) = TSSK2 (human) (UniProt Q96PF2)
# MERTK (human) = MERTK (human) (UniProt Q12866)
# FGFR2 (human) = FGFR2 (human) (UniProt P21802)
# PLK2 (human) = PLK2 (human) (UniProt Q9NYY3)
# HCK (human) = HCK (human) (UniProt P08631)
# GSK3A (human) = GSK3A (human) (UniProt P49840)
# CAMK2A (human) = CAMK2A (human) (UniProt Q9UQM7)
# NEK11 (human) = NEK11 (human) (UniProt Q8NG66)
# DDR2 (human) = DDR2 (human) (UniProt Q16832)
# EPHA8 (human) = EPHA8 (human) (UniProt P29322)
# TYRO3 (human) = TYRO3 (human) (UniProt Q06418)
# BTK (human) = BTK (human) (UniProt Q06187)
# PLK1 (human) = PLK1 (human) (UniProt P53350)
# MATK (human) = MATK (human) (UniProt P42679)
# EPHA1 (human) = EPHA1 (human) (UniProt P21709)
# EPHB3 (human) = EPHB3 (human) (UniProt P54753)
# SIK2 (human) = SIK2 (human) (UniProt Q9H0K1)
# MUSK (human) = MUSK (human) (UniProt O15146)
# PRKX (human) = PRKX (human) (UniProt P51817)
# DYRK3 (human) = DYRK3 (human) (UniProt O43781)
# WNK2 (human) = WNK2 (human) (UniProt Q9Y3S1)
# CSNK1D (human) = CSNK1D (human) (UniProt P48730)
# PIM1 (human) = PIM1 (human) (UniProt P11309)
# FGFR3 (human) = FGFR3 (human) (UniProt P22607)
# SGK3 (human) = SGK3 (human) (UniProt Q96BR1)
# CLK3 (human) = CLK3 (human) (UniProt P49761)
# CSNK1E (human) = CSNK1E (human) (UniProt P49674)
# STK11 (human) = STK11 (human) (UniProt Q15831)
# ACVRL1 (human) = ACVRL1 (human) (UniProt P37023)
# MARK2 (human) = MARK2 (human) (UniProt Q7KZI7)
# MST1R (human) = MST1R (human) (UniProt Q04912)
# Chain of WNK2 (human) (Q9Y3S1 whole entry, looked up): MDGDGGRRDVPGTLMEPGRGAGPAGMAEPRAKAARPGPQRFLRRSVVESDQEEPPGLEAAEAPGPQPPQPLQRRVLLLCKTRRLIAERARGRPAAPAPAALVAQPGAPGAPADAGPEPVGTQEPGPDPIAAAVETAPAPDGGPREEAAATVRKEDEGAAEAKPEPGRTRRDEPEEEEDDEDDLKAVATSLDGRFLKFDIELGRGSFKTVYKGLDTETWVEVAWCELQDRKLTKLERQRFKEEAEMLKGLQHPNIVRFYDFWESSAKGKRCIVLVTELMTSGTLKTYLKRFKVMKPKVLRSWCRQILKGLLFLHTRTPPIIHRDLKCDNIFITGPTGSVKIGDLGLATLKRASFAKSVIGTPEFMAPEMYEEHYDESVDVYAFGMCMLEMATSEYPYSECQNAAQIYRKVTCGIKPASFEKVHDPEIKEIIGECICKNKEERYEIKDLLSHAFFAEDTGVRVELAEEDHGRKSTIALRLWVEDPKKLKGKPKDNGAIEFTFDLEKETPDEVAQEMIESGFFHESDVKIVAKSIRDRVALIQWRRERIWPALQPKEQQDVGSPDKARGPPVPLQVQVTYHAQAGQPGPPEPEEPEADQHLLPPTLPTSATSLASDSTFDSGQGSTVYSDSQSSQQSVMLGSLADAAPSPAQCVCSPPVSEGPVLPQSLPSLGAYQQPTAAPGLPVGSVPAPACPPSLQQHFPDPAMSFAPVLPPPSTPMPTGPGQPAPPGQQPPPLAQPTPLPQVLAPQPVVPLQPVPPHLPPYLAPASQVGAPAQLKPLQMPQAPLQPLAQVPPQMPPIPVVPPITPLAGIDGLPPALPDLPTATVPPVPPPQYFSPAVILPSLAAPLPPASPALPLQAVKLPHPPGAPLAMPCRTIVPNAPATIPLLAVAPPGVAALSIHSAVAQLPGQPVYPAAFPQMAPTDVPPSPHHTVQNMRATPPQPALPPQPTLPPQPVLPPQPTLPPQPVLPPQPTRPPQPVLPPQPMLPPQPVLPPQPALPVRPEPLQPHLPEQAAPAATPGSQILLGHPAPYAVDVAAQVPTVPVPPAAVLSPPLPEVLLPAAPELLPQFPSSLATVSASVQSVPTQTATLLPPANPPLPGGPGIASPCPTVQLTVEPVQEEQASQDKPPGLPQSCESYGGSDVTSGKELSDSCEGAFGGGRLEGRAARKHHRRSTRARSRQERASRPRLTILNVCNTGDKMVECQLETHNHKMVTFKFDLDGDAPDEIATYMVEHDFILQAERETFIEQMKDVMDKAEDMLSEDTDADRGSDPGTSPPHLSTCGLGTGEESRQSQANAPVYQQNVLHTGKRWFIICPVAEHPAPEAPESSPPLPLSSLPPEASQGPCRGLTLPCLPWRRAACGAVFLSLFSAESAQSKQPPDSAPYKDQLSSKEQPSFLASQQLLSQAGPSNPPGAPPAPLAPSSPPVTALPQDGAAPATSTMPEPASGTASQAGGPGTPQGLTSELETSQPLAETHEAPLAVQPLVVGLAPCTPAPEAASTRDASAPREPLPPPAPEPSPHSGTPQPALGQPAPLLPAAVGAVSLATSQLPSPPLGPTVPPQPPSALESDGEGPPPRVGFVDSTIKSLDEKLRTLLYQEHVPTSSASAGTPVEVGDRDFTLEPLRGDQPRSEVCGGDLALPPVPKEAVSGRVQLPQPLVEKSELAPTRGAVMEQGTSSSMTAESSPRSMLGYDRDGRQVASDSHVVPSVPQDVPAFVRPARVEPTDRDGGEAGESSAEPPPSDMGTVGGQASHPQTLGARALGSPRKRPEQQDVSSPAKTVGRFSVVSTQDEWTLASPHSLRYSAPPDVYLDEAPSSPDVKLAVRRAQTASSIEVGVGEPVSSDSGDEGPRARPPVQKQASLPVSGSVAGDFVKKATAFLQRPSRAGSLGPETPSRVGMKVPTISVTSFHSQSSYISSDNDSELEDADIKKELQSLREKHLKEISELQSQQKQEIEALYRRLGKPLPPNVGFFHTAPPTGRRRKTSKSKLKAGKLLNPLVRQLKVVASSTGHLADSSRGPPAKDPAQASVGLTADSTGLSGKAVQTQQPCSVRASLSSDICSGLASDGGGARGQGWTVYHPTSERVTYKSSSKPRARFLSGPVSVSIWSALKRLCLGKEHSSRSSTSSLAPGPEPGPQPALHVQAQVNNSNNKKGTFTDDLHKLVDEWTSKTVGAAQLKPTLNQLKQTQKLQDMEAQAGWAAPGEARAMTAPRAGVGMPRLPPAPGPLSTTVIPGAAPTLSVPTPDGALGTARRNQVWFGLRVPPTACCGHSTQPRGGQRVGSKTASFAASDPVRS
# Chain of MATK (human) (P42679 whole entry, looked up): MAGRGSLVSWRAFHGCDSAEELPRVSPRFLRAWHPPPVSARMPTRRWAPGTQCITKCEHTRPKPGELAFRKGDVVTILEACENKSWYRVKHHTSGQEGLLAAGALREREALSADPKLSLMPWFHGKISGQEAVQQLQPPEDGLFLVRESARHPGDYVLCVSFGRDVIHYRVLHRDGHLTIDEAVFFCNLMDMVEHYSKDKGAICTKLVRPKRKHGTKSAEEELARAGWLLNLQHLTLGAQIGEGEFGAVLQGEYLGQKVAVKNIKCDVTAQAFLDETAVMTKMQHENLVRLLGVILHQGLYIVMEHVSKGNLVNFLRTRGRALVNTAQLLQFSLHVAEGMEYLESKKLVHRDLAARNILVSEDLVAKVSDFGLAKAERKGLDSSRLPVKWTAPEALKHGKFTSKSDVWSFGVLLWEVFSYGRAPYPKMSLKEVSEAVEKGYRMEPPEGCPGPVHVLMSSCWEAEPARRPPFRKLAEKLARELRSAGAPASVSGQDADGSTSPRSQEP
# Chain of TYRO3 (human) (Q06418 whole entry, looked up): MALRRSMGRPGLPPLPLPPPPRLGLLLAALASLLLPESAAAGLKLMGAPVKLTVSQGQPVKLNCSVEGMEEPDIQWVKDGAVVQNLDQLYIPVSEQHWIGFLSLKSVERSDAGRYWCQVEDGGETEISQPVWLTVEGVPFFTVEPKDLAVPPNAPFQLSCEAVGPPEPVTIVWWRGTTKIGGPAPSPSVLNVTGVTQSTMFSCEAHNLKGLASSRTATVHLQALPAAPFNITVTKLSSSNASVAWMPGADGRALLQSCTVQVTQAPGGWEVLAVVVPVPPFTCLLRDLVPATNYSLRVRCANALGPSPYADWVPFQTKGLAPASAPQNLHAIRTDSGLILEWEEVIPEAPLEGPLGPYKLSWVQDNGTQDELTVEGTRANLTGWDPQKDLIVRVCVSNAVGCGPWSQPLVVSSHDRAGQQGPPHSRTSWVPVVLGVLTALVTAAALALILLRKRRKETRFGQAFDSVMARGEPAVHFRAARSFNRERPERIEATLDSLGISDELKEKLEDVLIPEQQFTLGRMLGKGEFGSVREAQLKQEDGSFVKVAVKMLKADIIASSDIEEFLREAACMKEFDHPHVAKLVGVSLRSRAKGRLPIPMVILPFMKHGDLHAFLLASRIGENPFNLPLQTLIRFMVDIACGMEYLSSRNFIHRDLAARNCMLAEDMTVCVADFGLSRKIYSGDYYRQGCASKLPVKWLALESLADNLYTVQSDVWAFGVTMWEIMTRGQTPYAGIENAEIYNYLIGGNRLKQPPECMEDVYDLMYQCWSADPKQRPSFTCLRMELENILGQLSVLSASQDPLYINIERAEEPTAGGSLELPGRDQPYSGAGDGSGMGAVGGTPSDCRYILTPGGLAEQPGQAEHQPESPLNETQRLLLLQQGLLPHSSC
# Chain of PIM1 (human) (P11309 whole entry, looked up): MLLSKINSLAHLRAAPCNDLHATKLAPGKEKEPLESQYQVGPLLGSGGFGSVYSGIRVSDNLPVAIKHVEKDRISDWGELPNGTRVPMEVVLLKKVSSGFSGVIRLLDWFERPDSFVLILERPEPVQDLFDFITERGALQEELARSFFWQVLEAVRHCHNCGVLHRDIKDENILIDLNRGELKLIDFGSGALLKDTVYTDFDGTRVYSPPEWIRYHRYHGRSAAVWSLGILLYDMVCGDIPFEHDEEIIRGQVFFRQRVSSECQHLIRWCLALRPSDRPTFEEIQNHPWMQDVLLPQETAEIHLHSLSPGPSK
# Chain of NEK11 (human) (Q8NG66 whole entry, looked up): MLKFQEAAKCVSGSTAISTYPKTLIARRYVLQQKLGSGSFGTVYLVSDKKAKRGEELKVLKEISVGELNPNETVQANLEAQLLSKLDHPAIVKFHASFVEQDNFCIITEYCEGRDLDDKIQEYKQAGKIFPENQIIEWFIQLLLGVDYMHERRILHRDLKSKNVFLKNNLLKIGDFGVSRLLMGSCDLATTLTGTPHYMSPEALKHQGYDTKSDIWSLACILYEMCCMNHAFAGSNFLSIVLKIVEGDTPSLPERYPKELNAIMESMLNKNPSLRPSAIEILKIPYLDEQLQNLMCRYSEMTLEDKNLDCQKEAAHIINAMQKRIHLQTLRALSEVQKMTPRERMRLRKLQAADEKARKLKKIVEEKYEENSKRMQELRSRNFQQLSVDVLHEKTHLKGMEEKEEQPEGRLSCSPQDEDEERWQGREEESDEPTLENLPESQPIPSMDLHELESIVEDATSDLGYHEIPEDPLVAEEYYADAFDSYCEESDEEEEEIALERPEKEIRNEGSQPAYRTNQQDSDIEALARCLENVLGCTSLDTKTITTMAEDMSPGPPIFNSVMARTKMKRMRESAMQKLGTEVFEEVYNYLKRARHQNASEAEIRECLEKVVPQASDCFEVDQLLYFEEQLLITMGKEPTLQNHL
# Chain of CSNK1D (human) (P48730 whole entry, looked up): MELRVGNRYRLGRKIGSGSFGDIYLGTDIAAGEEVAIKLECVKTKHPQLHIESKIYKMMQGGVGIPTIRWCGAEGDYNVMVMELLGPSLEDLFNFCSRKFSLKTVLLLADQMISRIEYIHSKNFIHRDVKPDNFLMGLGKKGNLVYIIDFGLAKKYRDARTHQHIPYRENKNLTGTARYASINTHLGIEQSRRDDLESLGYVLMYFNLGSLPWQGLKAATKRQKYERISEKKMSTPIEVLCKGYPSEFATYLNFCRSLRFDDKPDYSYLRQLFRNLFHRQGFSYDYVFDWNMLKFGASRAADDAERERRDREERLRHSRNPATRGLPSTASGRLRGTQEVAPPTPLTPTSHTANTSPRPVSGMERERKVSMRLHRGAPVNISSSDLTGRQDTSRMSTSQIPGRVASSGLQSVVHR
smiles,measurement,setting,value
c1ccc(-c2n[nH]c3c2oc2ccccc23)cc1,residual activity,JAK2 JH1 JH2 (human),89.8%
same,residual activity,STK17A (human),84.4%
same,residual activity,CSNK1G1 (human),91.6%
same,residual activity,NEK4 (human),92.9%
same,residual activity,MAP4K2 (human),61.8%
same,residual activity,NUAK1 (human),96.2%
same,residual activity,NTRK2 (human),64%
same,residual activity,MAP3K3 (human),94.7%
same,residual activity,PIM3 (human),117%
same,residual activity,CSNK1G3 (human),88.5%
same,residual activity,PHKG1 (human),91.5%
same,residual activity,TSSK2 (human),97.6%
same,residual activity,MERTK (human),80%
same,residual activity,FGFR2 (human),97%
same,residual activity,PLK2 (human),102%
same,residual activity,HCK (human),111%
same,residual activity,GSK3A (human),91.4%
same,residual activity,CAMK2A (human),110%
same,residual activity,NEK11 (human),103%
same,residual activity,DDR2 (human),96%
same,residual activity,EPHA8 (human),102%
same,residual activity,TYRO3 (human),87.6%
same,residual activity,BTK (human),96.4%
same,residual activity,PLK1 (human),106%
same,residual activity,MATK (human),94%
same,residual activity,EPHA1 (human),78.6%
same,residual activity,EPHB3 (human),84.7%
same,residual activity,SIK2 (human),98.3%
same,residual activity,MUSK (human),72.6%
same,residual activity,PRKX (human),79.8%
same,residual activity,DYRK3 (human),93%
same,residual activity,WNK2 (human),102%
same,residual activity,CSNK1D (human),93.1%
same,residual activity,PIM1 (human),83.3%
same,residual activity,FGFR3 (human),97.5%
same,residual activity,SGK3 (human),111%
same,residual activity,CLK3 (human),91%
same,residual activity,CSNK1E (human),91.8%
same,residual activity,STK11 (human),107%
same,residual activity,ACVRL1 (human),111%
same,residual activity,MARK2 (human),92.9%
same,residual activity,MST1R (human),87.4%
CCN(CC)C(=O)c1ccc(Nc2nc(OCC3CCCCC3)c3nc[nH]c3n2)cc1,residual activity,JAK2 JH1 JH2 (human),4.21%
same,residual activity,STK17A (human),59.8%
same,residual activity,CSNK1G1 (human),68.5%
same,residual activity,NEK4 (human),87.9%
same,residual activity,MAP4K2 (human),59.7%
same,residual activity,NUAK1 (human),3.67%
same,residual activity,NTRK2 (human),54.3%
same,residual activity,MAP3K3 (human),47.3%
same,residual activity,PIM3 (human),109%
same,residual activity,CSNK1G3 (human),61.7%
same,residual activity,PHKG1 (human),85.9%
same,residual activity,TSSK2 (human),87.4%
same,residual activity,MERTK (human),71.6%
same,residual activity,FGFR2 (human),76.6%
same,residual activity,PLK2 (human),98.2%
same,residual activity,HCK (human),63.1%
same,residual activity,GSK3A (human),80.3%
same,residual activity,CAMK2A (human),105%
same,residual activity,NEK11 (human),132%
same,residual activity,DDR2 (human),109%
same,residual activity,EPHA8 (human),92.1%
same,residual activity,TYRO3 (human),90.4%
same,residual activity,BTK (human),37.1%
same,residual activity,PLK1 (human),91.4%
same,residual activity,MATK (human),95.6%
same,residual activity,EPHA1 (human),90.2%
same,residual activity,EPHB3 (human),99.5%
same,residual activity,SIK2 (human),75.3%
same,residual activity,MUSK (human),77.5%
same,residual activity,PRKX (human),93.4%
same,residual activity,DYRK3 (human),97.6%
same,residual activity,WNK2 (human),88.6%
same,residual activity,CSNK1D (human),102%
same,residual activity,PIM1 (human),95.6%
same,residual activity,FGFR3 (human),66.9%
same,residual activity,SGK3 (human),97.2%
same,residual activity,CLK3 (human),84.1%
same,residual activity,CSNK1E (human),95.6%
same,residual activity,STK11 (human),85.2%
same,residual activity,ACVRL1 (human),106%
same,residual activity,MARK2 (human),75.3%
same,residual activity,MST1R (human),103%
O=C(Nc1cccc(Nc2nccc(Nc3cccc(C(F)(F)F)c3)n2)c1)C1CC1,residual activity,JAK2 JH1 JH2 (human),47.7%
same,residual activity,STK17A (human),97.6%
same,residual activity,CSNK1G1 (human),105%
same,residual activity,NEK4 (human),83.4%
same,residual activity,MAP4K2 (human),112%
same,residual activity,NUAK1 (human),67.2%
same,residual activity,NTRK2 (human),71.6%
same,residual activity,MAP3K3 (human),97.9%
same,residual activity,PIM3 (human),106%
same,residual activity,CSNK1G3 (human),93.5%
same,residual activity,PHKG1 (human),98.3%
same,residual activity,TSSK2 (human),97.1%
same,residual activity,MERTK (human),90.1%
same,residual activity,FGFR2 (human),103%
same,residual activity,PLK2 (human),99.5%
same,residual activity,HCK (human),102%
same,residual activity,GSK3A (human),95%
same,residual activity,CAMK2A (human),98%
same,residual activity,NEK11 (human),102%
same,residual activity,DDR2 (human),81.7%
same,residual activity,EPHA8 (human),96.3%
same,residual activity,TYRO3 (human),93.8%
same,residual activity,BTK (human),83.7%
same,residual activity,PLK1 (human),91.7%
same,residual activity,MATK (human),101%
same,residual activity,EPHA1 (human),81.8%
same,residual activity,EPHB3 (human),100%
same,residual activity,SIK2 (human),103%
same,residual activity,MUSK (human),101%
same,residual activity,PRKX (human),94.6%
same,residual activity,DYRK3 (human),101%
same,residual activity,WNK2 (human),122%
same,residual activity,CSNK1D (human),111%
same,residual activity,PIM1 (human),103%
same,residual activity,FGFR3 (human),95%
same,residual activity,SGK3 (human),111%
same,residual activity,CLK3 (human),104%
same,residual activity,CSNK1E (human),110%
same,residual activity,STK11 (human),82.8%
same,residual activity,ACVRL1 (human),84.6%
same,residual activity,MARK2 (human),97%
same,residual activity,MST1R (human),92.6%
O=C1NC(=O)/C(=C/c2ccc3c(c2)OC(F)(F)O3)S1,residual activity,JAK2 JH1 JH2 (human),92.9%
same,residual activity,STK17A (human),90.4%
same,residual activity,CSNK1G1 (human),75.5%
same,residual activity,NEK4 (human),97.8%
same,residual activity,MAP4K2 (human),90.7%
same,residual activity,NUAK1 (human),91.8%
same,residual activity,NTRK2 (human),91.9%
same,residual activity,MAP3K3 (human),103%
same,residual activity,PIM3 (human),39.8%
same,residual activity,CSNK1G3 (human),91.4%
same,residual activity,PHKG1 (human),94.2%
same,residual activity,TSSK2 (human),101%
same,residual activity,MERTK (human),94.5%
same,residual activity,FGFR2 (human),97.6%
same,residual activity,PLK2 (human),99.7%
same,residual activity,HCK (human),89.8%
same,residual activity,GSK3A (human),88.1%
same,residual activity,CAMK2A (human),96.8%
same,residual activity,NEK11 (human),111%
same,residual activity,DDR2 (human),90.1%
same,residual activity,EPHA8 (human),93.8%
same,residual activity,TYRO3 (human),99.6%
same,residual activity,BTK (human),94.3%
same,residual activity,PLK1 (human),92.9%
same,residual activity,MATK (human),93.2%
same,residual activity,EPHA1 (human),90.2%
same,residual activity,EPHB3 (human),93.1%
same,residual activity,SIK2 (human),101%
same,residual activity,MUSK (human),70.9%
same,residual activity,PRKX (human),101%
same,residual activity,DYRK3 (human),100%
same,residual activity,WNK2 (human),113%
same,residual activity,CSNK1D (human),98.9%
same,residual activity,PIM1 (human),35.9%
same,residual activity,FGFR3 (human),96.4%
same,residual activity,SGK3 (human),94.7%
same,residual activity,CLK3 (human),96.8%
same,residual activity,CSNK1E (human),96.9%
same,residual activity,STK11 (human),96.9%
same,residual activity,ACVRL1 (human),97.1%
same,residual activity,MARK2 (human),96.8%
same,residual activity,MST1R (human),100%
